# Assay results: PubChem BioAssay (NCI)
#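 In this assay, cells in 96-well plates receive the compound at five concentrations for 48 hours. Endpoints are linearly interpolated between the surrounding concentrations. The concentration for full growth arrest is given as TGI.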
# Legend:
# Test in all cases: inhibition of tumour cell growth, NCI panel, 48 h
# HCT-116 colon = test system: HCT-116 colon
# M14 melanoma = test system: M14 melanoma
# HCT-15 colon = test system: HCT-15 colon
# MALME-3M melanoma = test system: MALME-3M melanoma
# HT29 colon = test system: HT29 colon
# CAKI-1 renal = test system: CAKI-1 renal
# UACC-257 melanoma = test system: UACC-257 melanoma
# MDA-MB-231 breast = test system: MDA-MB-231 breast
# HOP-62 NSCLC = test system: HOP-62 NSCLC
# NCI/ADR-RES ovarian = test system: NCI/ADR-RES ovarian
# CCRF-CEM leukemia = test system: CCRF-CEM leukemia
# T-47D breast = test system: T-47D breast
# UACC-62 melanoma = test system: UACC-62 melanoma
# SK-MEL-2 melanoma = test system: SK-MEL-2 melanoma
# IGROV1 ovarian = test system: IGROV1 ovarian
# HS 578T breast = test system: HS 578T breast
# TK-10 renal = test system: TK-10 renal
# A498 renal = test system: A498 renal
# RPMI-8226 leukemia = test system: RPMI-8226 leukemia
# SNB-19 CNS = test system: SNB-19 CNS
# NCI-H460 lung = test system: NCI-H460 lung
# OVCAR-8 ovarian = test system: OVCAR-8 ovarian
# COLO 205 colon = test system: COLO 205 colon
# SF-268 CNS = test system: SF-268 CNS
# SK-OV-3 ovarian = test system: SK-OV-3 ovarian
# SN12C renal = test system: SN12C renal
# MDA-N = test system: MDA-N
# SF-295 CNS = test system: SF-295 CNS
# 786-0 renal = test system: 786-0 renal
# ACHN renal = test system: ACHN renal
# UO-31 renal = test system: UO-31 renal
# MOLT-4 leukemia = test system: MOLT-4 leukemia
# NCI-H522 lung = test system: NCI-H522 lung
# MDA-MB-435 = test system: MDA-MB-435
# OVCAR-4 ovarian = test system: OVCAR-4 ovarian
# KM12 colon = test system: KM12 colon
# BT-549 breast = test system: BT-549 breast
# SW-620 colon = test system: SW-620 colon
# SK-MEL-5 melanoma = test system: SK-MEL-5 melanoma
# NCI-H226 lung = test system: NCI-H226 lung
# U251 CNS = test system: U251 CNS
# RXF 393 renal = test system: RXF 393 renal
# SK-MEL-28 melanoma = test system: SK-MEL-28 melanoma
# OVCAR-3 ovarian = test system: OVCAR-3 ovarian
# HOP-92 NSCLC = test system: HOP-92 NSCLC
# LOX IMVI melanoma = test system: LOX IMVI melanoma
# SF-539 CNS = test system: SF-539 CNS
# SNB-75 CNS = test system: SNB-75 CNS
# EKVX NSCLC = test system: EKVX NSCLC
# A549 NSCLC = test system: A549 NSCLC
# HL-60(TB) leukemia = test system: HL-60(TB) leukemia
# DU-145 prostate = test system: DU-145 prostate
# MCF7 breast = test system: MCF7 breast
# NCI-H23 lung = test system: NCI-H23 lung
# K-562 leukemia = test system: K-562 leukemia
# PC-3 prostate = test system: PC-3 prostate
# OVCAR-5 ovarian = test system: OVCAR-5 ovarian
smiles,measurement,setting,value
O=[N+]([O-])c1ccc(/C=N/n2c(CO)nc3ccccc32)o1,TGI,HCT-116 colon,7.86 µM
same,TGI,M14 melanoma,16.7 µM
same,TGI,HCT-15 colon,15.7 µM
same,TGI,MALME-3M melanoma,5.44 µM
same,TGI,HT29 colon,10.3 µM
same,TGI,CAKI-1 renal,24.8 µM
same,TGI,UACC-257 melanoma,6.25 µM
same,TGI,MDA-MB-231 breast,20.6 µM
same,TGI,HOP-62 NSCLC,28.7 µM
same,TGI,NCI/ADR-RES ovarian,74.7 µM
same,TGI,CCRF-CEM leukemia,36.8 µM
same,TGI,T-47D breast,47.9 µM
same,TGI,UACC-62 melanoma,21.9 µM
same,TGI,SK-MEL-2 melanoma,24.1 µM
same,TGI,IGROV1 ovarian,6.09 µM
same,TGI,HS 578T breast,35.6 µM
same,TGI,TK-10 renal,19.2 µM
same,TGI,A498 renal,32.4 µM
same,TGI,RPMI-8226 leukemia,19.6 µM
same,TGI,SNB-19 CNS,30.7 µM
same,TGI,NCI-H460 lung,16.3 µM
same,TGI,OVCAR-8 ovarian,25.3 µM
same,TGI,COLO 205 colon,10.6 µM
same,TGI,SF-268 CNS,22.7 µM
same,TGI,SK-OV-3 ovarian,71.9 µM
same,TGI,SN12C renal,18.1 µM
same,TGI,MDA-N,13.3 µM
same,TGI,SF-295 CNS,25.2 µM
same,TGI,786-0 renal,17.9 µM
same,TGI,ACHN renal,17.3 µM
same,TGI,UO-31 renal,22.9 µM
same,TGI,MOLT-4 leukemia,7.12 µM
same,TGI,NCI-H522 lung,4.43 µM
same,TGI,MDA-MB-435,13.9 µM
same,TGI,OVCAR-4 ovarian,21.8 µM
same,TGI,KM12 colon,15.4 µM
same,TGI,BT-549 breast,27.6 µM
same,TGI,SW-620 colon,29.1 µM
same,TGI,SK-MEL-5 melanoma,6.78 µM
same,TGI,NCI-H226 lung,39.5 µM
same,TGI,U251 CNS,37.2 µM
same,TGI,RXF 393 renal,18.3 µM
same,TGI,SK-MEL-28 melanoma,12.6 µM
same,TGI,OVCAR-3 ovarian,6.91 µM
same,TGI,HOP-92 NSCLC,14.8 µM
same,TGI,LOX IMVI melanoma,15.9 µM
same,TGI,SF-539 CNS,55 µM
same,TGI,SNB-75 CNS,57.1 µM
same,TGI,EKVX NSCLC,23.6 µM
same,TGI,A549 NSCLC,36.5 µM
same,TGI,HL-60(TB) leukemia,9.41 µM
same,TGI,DU-145 prostate,13.9 µM
same,TGI,MCF7 breast,15.2 µM
same,TGI,NCI-H23 lung,20 µM
same,TGI,K-562 leukemia,62.7 µM
same,TGI,PC-3 prostate,26.1 µM
same,TGI,OVCAR-5 ovarian,24.7 µM
